According to patent US20050196806A1, “Prostate specific antigen oligoepitope peptide” (The Government of the USA, as represented by the Secretary, …, priority 1996, published 2005):
Converted amounts (≈) assume the structure as drawn. Marks after values point to notes of the source that are not given here. Values belong to the compound of their own block, whether it stands above or below them. Residues, ends and D or L forms follow the SMILES beside them.

Experiments:
[1] = Solubility of synthesized peptide; format: physicochemical; conditions: in 1% DMSO
Protocol: PSA-OP was synthesized on an Applied Biosystems Model 432A peptide synthesizer. It operates on a 25 μmole scale and employs f-moc chemistry and feedback monitoring to control the coupling of each successive amino acid to the growing chain. The completed peptide is cleaved off the synthesis resin with -trifluoroacetic acid and thioanisole/ethanedithiol as scavengers. Acid salts are extracted with tert-butyl methyl ether and the peptide is lyophilized from water to give approximately 64 mg powder. The powder is soluble at 2 mg/ml in 1% DMSO and sterile-filtered aliquots show a single sharp peak on C18 reverse phase high performance liquid chromatography.

CIR-A2 cells = assay: Effects of protease inhibitors on CTL mediated killing of CIRA2 cells pulsed with PSA-OP; format: cell-based, human; conditions: Donor-1 PSA-OP CTL, 25:1 E:T ratio; for % of Specific Release (+/−SD), CIRA2 cells, No peptide: Medium 7.7 (1.9)
Protocol: Various target cells were labeled with 50 μCi of ^111In-oxyquinoline (Medi-Physics Inc., Arlington, Ill.) for 15 minutes at room temperature. Target cells (0.2×10^4) in 100 μl of complete medium (see below) were added to each of 96 wells in flat bottom assay plates (Corning Costar Corp.). The labeled targets were incubated with peptides at a final concentration of 50 μg/ml for 60 min at 37° C. in 5% CO2 before adding effector cells. Effector cells were suspended in 100 μl of complete medium supplemented with 5% pooled human AB serum and added to target cells. The plates were incubated at 37° C. for 16 hours. Supernatants were harvested for γ-counting using harvester frames (Skatron, Inc. Sterling, Va.). Determinations were carried out in triplicate and standard deviations were calculated. All experiments were carried out three times. Specific Lysis was calculated using the following formula: % of Specific Release=observed release(cpm)−spontaneous release(cpm) total releae(cpm)−spontaneous release(cpm)×100
[…] Peptide pulsed target cells were incubated with protease inhibitors. Protease inhibitors used were E64, carboxypeptidase inhibitor, plummer inhibitor, and captopril (angiotension converting enzyme inhibitor) at various concentrations (10^−5, 10^−6, 10^−7 M). CTL activity was determined by the CTL assay described above.

[2] = target: T1, HLA class-I A2001 molecule (Homo sapiens, UniProt P04439, D140Y/D185E/D98H/E176V/E277Q/G131W/G231S/I119V/I121R/I166T/I218V/L300P/L318F/N151K/N90K/P208A/P217A/Q86G/Q94H/R138H/R169H/T345S); assay: Peptide binding to HLA-A2: upregulation on T2 cells by flow cytometry (Example IV); conditions: T2 cells incubated 24 h with peptide 50 μg/ml/10^6 cells; 100 cut off value for positivity; None = 16.88
T1 construct: endogenous in cells; host or cells: T2 cells (174CEM.T2, transport deletion mutant)

human HLA A2 molecules = target: T2, human HLA A2 molecules (Homo sapiens, UniProt P04439, D140Y/D185E/D98H/E176V/E277Q/G131W/G231S/I119V/I121R/I166T/I218V/L300P/L318F/N151K/N90K/P208A/P217A/Q86G/Q94H/R138H/R169H/T345S); assay: T2 cell binding assay (PSA peptide binding assay, Example II); conditions: peptides at 50 μg/ml, None = 127.25
T2 construct: endogenous in cells; host or cells: T2 cells (174CEM.T2)
Source text: The amino acid sequence of human PSA was scanned using a predictive algorithm that combines a search for anchor residues with numerical assignments to all residues at all positions. The T2 cell binding assay was then used to determine which peptides bound human HLA A2 molecules. […] Table 7 gives the amino acid sequence of these peptides and compares them to corresponding sequences of HGK and PKA.

[3] = tested on: PBMC from normal healthy donors expressing the HLA A2 class 1 allele; assay: Establishment of human T cell lines by pulsing PBMC with peptide and IL-2; format: cell-based; conditions: donors with T cell line / donors tested; PBMC pulsed with peptide and IL-2
Source text: Cytotoxic T-cells specific for PSA can be established from peripheral blood mononuclear cells (PBMC) obtained from a host immunized as discussed above. For example, PBMC can be separated by using Lymphocyte Separation Medium gradient (Organon Teknika, Durham, N.C., USA) as previously described [Boyum et al, Scand J. Clin Lab Invest 21:77-80 (1968)]. Washed PBMC are resuspended in a complete medium, for example, RPMI 1640 (GIBCO) supplemented with 10% pool human AB serum (Pel-Freeze Clinical System, Brown Dear, Wisc., USA), 2 mM glutamine, 100 U/ml penicillin and 100 μg/ml of streptomycin (GIBCO). PBMC at a concentration of about 2×10^5 cells in complete medium in a volume of, for example 100 μl are added into each well of a 96-well flat-bottom assay plate (Costar, Cambridge, Mass., USA). The antigen or peptides are added into the cultures in a final concentration of about 50 μg/ml and incubated at 37° C. in a humidified atmosphere containing 5% CO2 for 5 days. After removal of peptide containing media, the cultures are provided with fresh human IL-2 (10 U/ml) after 5 days and replenished with IL-2 containing medium every 3 days. Primary cultures are restimulated with the same peptide (50 μg/ml) on day 16. 5×10^5 irradiated (4,000 rad) autologous PBMC are added in a volume of about 50 μl complete medium as antigen-presenting cells (APC). […]

T2 cells = assay: Cytotoxic assay of PSA peptide specific T cells against T2 cells; format: cell-based, human; conditions: 24 hour assay, E:T ratio 25:1
[4] = tested on: LNCAP PSA expressing human prostate cancer cell line; assay: Cytotoxic assay of PSA peptide specific T cells against LNCAP (Example III); format: cell-based; conditions: 24 hour assay, E:T ratio 25:1
Source text: (§1) Four of the T cell lines derived from three different individuals were then assays for their ability to lyse human cells (Table 9). […] No lysis was seen using the PSA negative human colon cancer cell line COLO-205. While 80% lysis was seen using the LNCAP PSA expressing human prostate cancer cell line. When employing the NK target K562, which measures non-specific lysis due to NK cell activity, only 23% lysis was obtained. Similar results were seen employing a different T cell line obtained from the same patient which was derived from pulsing with PSA peptide 154-163. Two additional T cell lines which were derived from peptide 154-163 were also analyzed. One was from a normal donor (T-1538) and one was from a prostate cancer patient (T-PC2; T Donor C).

NK target K562 = assay: Cytotoxic assay of PSA peptide specific T cells against K562; format: cell-based, human; conditions: 24 hour assay, E:T ratio 25:1
Source text: as §1

[5] = tested on: PSA negative human colon cancer cell line COLO-205; assay: Cytotoxic assay of PSA peptide specific T cells against COLO-205; format: cell-based; conditions: 24 hour assay, E:T ratio 25:1
Source text: as §1

[6] = tested on: PBLs isolated from male HLA-A2001+ donors; assay: Limiting dilution analysis of CTL precursor frequency; format: cell-based, human; conditions: for Number of precursors (precursor frequency): calculated by X^2 minimization; for % of negative microcolonies, 10,000: two cycles of stimulation with the peptide, targets CIRA2 pulsed 3 h, cold K562
Protocol: Limiting dilution assays were used for the determination of precursor frequencies to PSA-1, PSA-3 and PSA-OP. Various number of PBMCs were seeded in 96-well flat bottom plates (Coming Costar) with 1×10^4 autologous PBMC irradiated with 4,000 rads and incubated with 50 μg/ml of PSA peptide. Cells were cultured in complete medium as described previously. At least 48 cultures were set up for each dilution. Cultures were incubated for 5 days at 37° C. in a humidified atmosphere containing 5% CO2 and then provided with fresh medium containing human IL-2 for 11 days, with IL-2-containing medium being replenished every 72 hr as shown below for CTLs generation. After two cycles of stimulation specific cytotoxic activity was tested for each single well, against CIR-A2 target cells with or without incubation with peptide. Cytotoxic assays were similar to the method described above. The unlabelled K562 cells were added to the microwells containing responder cells. After 1 hr incubation at 37° C. target cells were added into each well and incubated for 6 hrs at 37° C. Precursor frequencies were calculated by X^2 minimization.

[7] = T-Donor C T-cell line (prostate cancer patient)

Compound: CC[C@H](C)[C@H](NC(=O)[C@@H](NC(=O)[C@H](Cc1c[nH]cn1)NC(=O)[C@H](CC(C)C)NC(=O)[C@H](CC(=O)O)NC(=O)[C@@H](NC(=O)[C@H](CS)NC(=O)[C@H](CCC(N)=O)NC(=O)[C@H](CC(C)C)NC(=O)[C@H](CCCCN)NC(=O)[C@H](CCCCN)NC(=O)[C@@H]1CCCN1C(=O)[C@@H](NC(=O)[C@H](CC(C)C)NC(=O)[C@@H](N)Cc1ccccc1)[C@@H](C)O)C(C)C)C(C)C)C(=O)N[C@@H](CO)C(=O)N[C@@H](CC(N)=O)C(=O)N[C@@H](CC(=O)O)C(=O)N[C@H](C(=O)N[C@@H](CS)C(=O)N[C@@H](C)C(=O)N[C@@H](CCC(N)=O)C(=O)N[C@H](C(=O)N[C@@H](Cc1c[nH]cn1)C(=O)N1CCC[C@H]1C(=O)N[C@@H](CCC(N)=O)C(=O)N[C@@H](CCCCN)C(=O)N[C@H](C(=O)N[C@H](C(=O)N[C@@H](CCCCN)C(=O)O)[C@@H](C)O)C(C)C)C(C)C)C(C)C [PSA-OP] (H-FLTPKKLQCVDLHVISNDVCAQVHPQKVTK-OH; N-terminus and C-terminus assumed)
- solubility [1]: 2000 µg/mL (≈ 590 µM)

Compound: C[C@H](CS)C(=O)N1CCC[C@H]1C(=O)O [Captopril, captopril]
- % of Specific Release (+/−SD), CIRA2 cells pulsed with PSA-OP peptide [50 μg/ml] (CIR-A2 cells; inhibitor 10^−6 M): 11.0 (2.6) %
- % of Specific Release (+/−SD), CIRA2 cells, No peptide (CIR-A2 cells; inhibitor 10^−6 M): 15.8 (2.1) %

- T2 binding: relative fluorescence (mean intensity) with anti-HLA-A2 mAb [2]: 51.44
Compound: PSA [42-51]: negative control peptide, unable to bind HLA class I-A2 [reference compound]

Compound: KLQCVDLHV [PSA 146-154, ID No. 9]
- MAb A2, 69: Mean channel fluorescent intensity (human HLA A2 molecules): 223.97
- MAb A2, 69: Mean channel fluorescent intensity (human HLA A2 molecules; listed as 146-154): positive

Compound: NC(N)=NCCSCC(CS)C(=O)O (centres unmarked) [Plummer's]
- % of Specific Release (+/−SD), CIRA2 cells, No peptide (CIR-A2 cells; inhibitor 10^−5 M): 10.7 (2.0) %

Compound: CC(C)C[C@H](NC(=O)[C@H]1O[C@@H]1C(=O)O)C(=O)NCCCCN=C(N)N [E 64]
- % of Specific Release (+/−SD), CIRA2 cells pulsed with PSA-OP peptide [50 μg/ml] (CIR-A2 cells; inhibitor 10^−6 M): 13.7 (0.6) %
- % of Specific Release (+/−SD), CIRA2 cells, No peptide (CIR-A2 cells; inhibitor 10^−6 M): 11.9 (1.7) %

Compound: VISNDVCAQV [PSA-3, ID No. 2]
- MAb A2, 69: Mean channel fluorescent intensity (human HLA A2 molecules; listed as 154-163): positive
- MAb A2, 69: Mean channel fluorescent intensity (human HLA A2 molecules; listed as PSA 154-163): 182.30
- T2 binding: relative fluorescence (mean intensity) with anti-HLA-A2 mAb [2]: 123.71
- T cell lines established from normal donors [3]: 6/6
- % specific release (lysis), T2 (T2 cells; T-Donor A T-cell line derived with the peptide, 111In release): 16%
- % specific release (lysis), T2 + peptide (T2 cells; T-Donor A T-cell line): 35^b %
- % specific release (lysis), T2 (T2 cells; T-Donor B T-cell line): 10%
- % specific release (lysis), T2 + peptide (T2 cells; T-Donor B T-cell line): 40^b %
- % specific release (lysis), T2 (T2 cells; [7]): 15%
- % specific release (lysis), T2 + peptide (T2 cells; [7]): 35^b %
- % specific release (lysis), LNCAP ([4]; T-Donor A T-cell line): 60^b %
- % specific release (lysis), LNCAP ([4]; T-Donor B T-cell line): 29^b %
- % specific release (lysis), LNCAP [4, 7]: 35^b %
- % specific release (lysis), K562 (NK target K562; T-Donor A T-cell line): 22%
- % specific release (lysis), K562 (NK target K562; T-Donor B T-cell line): 3%
- % specific release (lysis), K562 (NK target K562; [7]): 2%
- % specific release (lysis), COLO-205 ([5]; T-Donor A T-cell line): 10%
- % specific release (lysis), COLO-205 ([5]; T-Donor B T-cell line): 10%
- % specific release (lysis), COLO-205 [5, 7]: 8%
- % of negative microcolonies, 500 ([6]; T/PSA-OP 2 donor): 100.0%
- % of negative microcolonies, 1,000 ([6]; T/PSA-OP 2 donor): 100.0%
- % of negative microcolonies, 5,000 ([6]; T/PSA-OP 2 donor): 97.8%
- Number of precursors (precursor frequency) ([6]; T/PSA-OP 2 donor): 1/244200
- % of negative microcolonies, 10,000 ([6]; T/PSA-OP 2 donor): 95.8%
- % of negative microcolonies, 500 ([6]; T/PSA-OP 3 donor): 97.6%
- % of negative microcolonies, 1,000 ([6]; T/PSA-OP 3 donor): 95.8%
- % of negative microcolonies, 5,000 ([6]; T/PSA-OP 3 donor): 93.7%
- Number of precursors (precursor frequency) ([6]; T/PSA-OP 3 donor): 1/59279
- % of negative microcolonies, 10,000 ([6]; T/PSA-OP 3 donor): 89.6%
